How the values were obtained:
[1] = system: SW620 cells; assay: Inhibition of SW620 cells; assay type: cell-based; conditions: Homo sapiens, SW-620, in the combination 9 at constant 0.25 μM
[2] = system: HCC1806 cells; assay: Cell proliferation by live-cell imaging (IncuCyte), HCC1806 TNBC cells; assay type: cell-based; conditions: 40 μM, 72 h
Description: As TNBC is a highly heterogeneous subgroup, including breast cancers with different molecular and phenotypic traits,[37] effects of compounds 5–10 on cell proliferation were also tested in additional TNBC cell lines, i.e., HCC1806 and HCC1937. As inhibitors of HCC1806 TNBC cells, compounds 5–10 were evaluated in parallel with compounds 3, ICG-001, and iCRT3 (Figures 10 and S12–S19, Supporting Information); as inhibitors of the HCC1937 TNBC cells, 5–10 were compared with 3 and iCRT3 (Figures 10, S20, and S21). Effects on cell proliferation were evaluated as above for the MDA-MB-231 TNBC cells at the latest time point of observation of 72 h.
(§1) Figure 10 Inhibition of MDA-MB-231, HCC1806, and HCC1937 TNBC cell growth by compounds 5–10 and reference compounds 3, […], and iCRT3 at 40 μM. Cell growth inhibition was quantified using the IncuCyte cell-by-cell analysis software, by comparison with the growth of DMSO-treated cells at 72 h, set at 100% (mean ± SD, n = 3, one-way ANOVA, **p ≤ 0.01, ****p ≤ 0.0001).
(§2) Cell proliferation of breast cancer cell lines upon continuous treatment with select compounds was evaluated by the real-time quantitative live-cell imaging system. MDA-MB-231 (1500 cells/well), HCC1806 (2000 cells/well), and HCC1937 (3000 cells/well) were seeded in 96-well plates, treated with increasing doses of selected compounds and images (5 images/well) were acquired every 8 h for 3 days at 10× magnification in an IncuCyte SX5 live-content imaging system (Essen Bioscience) at 37 °C with 5% CO2. Images were analyzed using IncuCyte cell-by-cell analysis software to detect and quantify live cells (phase-contrast). The number of cells at each time point was quantified using IncuCyte cell-by-cell analysis software, and cell growth was evaluated as the normalized ratio between counted cells at each time point normalized to those counted at time 0. Graph drawing and statistical analyses were performed in GraphPad Prism according to the statistical tests described in the figure legends.

[3] = system: SW480 cells; assay: Cell viability (XTT) of SW480 colon cancer cells; assay type: cell-based
Description: PKCδ has been recognized to be a proapoptotic kinase; its cleavage and activation promote apoptotic cell death (Table 2).[33]
Cell viability was evaluated by XTT[55] (SW480 cells) or MTT[56] (HCT116 cells) colorimetric assays. Briefly, cells (range 10–30 × 10^3 cells/well) were seeded in 96-well microculture plates and then exposed to increasing concentrations of different compounds (range 0–300 μM) for 48 or 72 h. […] Absorbance at 450 nm and a reference wavelength of 650 nm was then measured using a microplate spectrophotometer (Multiskan FC Microplate Photometer, Thermo Scientific, Waltham, MA). The cell growth inhibition rate was calculated utilizing the following formula: inhibition rate (%) = […] × 100, where Control OD is the absorbance of the negative control and Sample OD is the absorbance of the test sample. The IC50 values were determined with GraphPad Prism 5 through constructed dose–response curves.

[4] = system: Wnt/β-catenin signaling pathway; assay: Topflash/Fopflash luciferase report assay in SW480 cells; assay type: cell-based; conditions: 30 μM
Text: We synthesized derivatives 5–10 bearing 5-membered and 6-membered heterocyclic rings at the position 3′ or 4′ of the B phenyl ring. […] SW480 cells show higher Wnt activation compared to HCT116 cells.[28] […] In SW480 cells, compounds 5–10 were in the 1.75%(10)–7.32%(7) range of residual luciferase activity, except 6(28.46%), compared to 3(21.61%); in HCT116 cells, compounds 5–10 were in the 0.37%(7)–5.88%(5) range, compared to 3 (18.75%) (Table 1 and Figure 5).
Figure 5 Residual luciferase activity (%) by compounds 5–10 and reference compound 3 in SW480 cells (left panel) and HCT116 cells (right panel). Data are represented as the mean ± SD of three independent experiments, each performed in triplicate.
Briefly, the Topflash plasmid (Beyotime, Zhejiang, China) contains 7 TCF/LEF binding sites, while the Fopflash plasmid (Beyotime, Zhejiang, China) contains 6 mutated TCF/LEF binding sites, which are located in the upstream of the luciferase reporter. SW480 and HCT116 cell lines were cultured in 90% DMEM (HyClone, #SH30243.01) plus 10% fetal bovine serum (Gibco, #10270) and plasmocin (mpp-39-03, InvivoGen), respectively. The Topflash/Fopflash vector and plasmid pTK-renilla together were co-transfected to the cells. […] The Dual-Glo luciferase assay kit (Promega, #E1910) was used to measure the luminescence intensity (Figure 2).

[5] = system: MDA-MB-231 cells; assay: Cell proliferation by live-cell imaging (IncuCyte), MDA-MB-231 TNBC cells; assay type: cell-based; conditions: 40 μM, 48 and 72 h
Text: TNBC represents approximately 10–15% of all breast cancers and is the most aggressive subtype of breast cancer. Patients with TNBC have a poor outcome compared to the other subtypes of breast cancer. In the breast cancer tissue, β-catenin is overexpressed compared to the normal tissue. The overexpression of β-catenin is associated with TNBC and lymph node metastasis. […] There is a quest for the development of new therapies to treat TNBC. […] Effects on cell proliferation of MDA-MB-231 TNBC cells were evaluated by live-time cell imaging using the Incucyte S5 system.
as §1, §2

[6] = system: Fgf20 and Sal4; assay: Wnt-target gene mRNA levels (qPCR) in LiCl-treated HCT116 cells; assay type: cell-based, human; conditions: HCT116, LiCl 50 mM, 24 h, 10 μM
Description: To this end, HCT116 cells were treated for 24 h with 50 mM LiCl and increasing concentrations (10–50–100 μM) of the two compounds.
HCT116 was treated with LiCl (50 mM) and 10 μM compound 9 or 10 for 24 h. Fgf20, Sall4 (Wnt-target genes) mRNA levels were measured by qPCR and normalized to the expression of β-actin mRNA. Results are expressed as fold change relative to the control sample and represent the mean ± SD of three independent experiments, each performed in triplicate. *p < 0.05, **p < 0.01, ***p < 0.001 as determined by ANOVA.

O=S(=O)(Nc1ccc(-c2ccccn2)cc1)c1ccc(Br)cc1 [Compound 9, 4-Bromo-N-(4-(pyridin-2-yl)phenyl)benzenesulfonamide]
EC50 [1]: 37 µM
effect on HCC1806 cell growth [2]: less effective
improvement in SW480 cell growth inhibition compared with 5-FU [3]: 6 fold
% Luciferase Activity SW480 (residual) [4]: 8.75%
effect on MDA-MB-231 cell proliferation [5]: less effective
mRNA levels of Wnt-target genes Fgf20 and Sal4 [6]: strongly inhibited
